ChEMBL document CHEMBL1201862, “PubChem BioAssay data set” (2004)
Activity calls are given as the source filed them.

Tests used:
Beta-galactosidase = Beta-galactosidase (Escherichia coli, UniProt Q8VNN2); test: detection-enzyme interference by beta-gal modulators – biochemical, E. coli enzyme, set 3, artefact control for CCR6 antagonist project, dose response (AID 504712); format: functional
Nonstructural protein 1 = Nonstructural protein 1 (Influenza A virus, UniProt Q194T2); format: functional, Influenza A virus (A/California/07/2009(H1N1))
Sequence of Nonstructural protein 1 (Q194T2 whole entry): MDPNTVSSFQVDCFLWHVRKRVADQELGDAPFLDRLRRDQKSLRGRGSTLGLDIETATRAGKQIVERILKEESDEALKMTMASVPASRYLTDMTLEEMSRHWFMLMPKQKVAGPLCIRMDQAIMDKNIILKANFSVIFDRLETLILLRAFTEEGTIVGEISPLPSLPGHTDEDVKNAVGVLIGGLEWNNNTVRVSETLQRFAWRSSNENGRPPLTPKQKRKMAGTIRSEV

Vero = test: cells; format: functional; conditions: Chlorocebus sabaeus
[1] = target: Glucose-6-phosphate 1-dehydrogenase (Homo sapiens, UniProt P11413); test: inhibition of Homo sapiens G6PD, dose series – biochemical, fluorescence, selectivity assay for P. falciparum G6PD inhibitor project, dose response (AID 504792); format: functional
Sequence of Glucose-6-phosphate 1-dehydrogenase (P11413 whole entry): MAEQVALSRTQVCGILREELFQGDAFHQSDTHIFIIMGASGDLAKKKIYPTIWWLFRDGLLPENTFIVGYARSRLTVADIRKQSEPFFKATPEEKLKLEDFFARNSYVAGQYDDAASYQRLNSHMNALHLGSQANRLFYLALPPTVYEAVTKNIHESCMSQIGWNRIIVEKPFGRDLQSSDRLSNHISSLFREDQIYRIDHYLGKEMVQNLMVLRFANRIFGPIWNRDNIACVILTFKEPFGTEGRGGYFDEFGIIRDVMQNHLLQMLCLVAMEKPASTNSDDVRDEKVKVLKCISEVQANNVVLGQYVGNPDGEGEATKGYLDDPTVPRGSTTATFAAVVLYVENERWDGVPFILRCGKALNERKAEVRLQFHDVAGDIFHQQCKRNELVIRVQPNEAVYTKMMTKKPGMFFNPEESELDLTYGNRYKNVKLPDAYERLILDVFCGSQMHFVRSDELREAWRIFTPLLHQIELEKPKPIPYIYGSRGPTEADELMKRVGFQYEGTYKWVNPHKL

[2] = target: C-C chemokine receptor type 6 (Homo sapiens, UniProt P51684); test: antagonism of CCR6 beta-arrestin recruitment – cell-based, luminescent beta-arrestin readout, dose response (AID 504728); format: functional
Sequence of C-C chemokine receptor type 6 (P51684 whole entry): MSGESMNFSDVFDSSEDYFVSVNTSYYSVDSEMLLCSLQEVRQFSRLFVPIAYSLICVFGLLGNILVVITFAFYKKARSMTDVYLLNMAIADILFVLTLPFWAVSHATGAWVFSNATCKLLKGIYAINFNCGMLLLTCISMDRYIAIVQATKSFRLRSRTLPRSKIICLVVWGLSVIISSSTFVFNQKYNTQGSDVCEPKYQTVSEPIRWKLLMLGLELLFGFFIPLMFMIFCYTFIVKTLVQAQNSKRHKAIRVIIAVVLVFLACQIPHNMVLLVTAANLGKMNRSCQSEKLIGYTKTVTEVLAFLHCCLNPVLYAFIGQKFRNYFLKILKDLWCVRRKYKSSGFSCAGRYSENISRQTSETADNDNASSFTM

HeLa = test: viability loss in HeLa cells – cell-based, 24 h, cherry-picked samples, cytotoxicity control, dose response (AID 504726); format: functional; conditions: Homo sapiens;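 further: potency for cytotoxicity as loss of luminescence signal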
Caspase-6 = Caspase-6 (Homo sapiens, UniProt P55212); test: inhibition of CASP6 peptide cleavage – biochemical, VEID-R110 fluorescence, cherry-pick, dose response (AID 720632)
Sequence of Caspase-6 (P55212 24-179 limits assumed): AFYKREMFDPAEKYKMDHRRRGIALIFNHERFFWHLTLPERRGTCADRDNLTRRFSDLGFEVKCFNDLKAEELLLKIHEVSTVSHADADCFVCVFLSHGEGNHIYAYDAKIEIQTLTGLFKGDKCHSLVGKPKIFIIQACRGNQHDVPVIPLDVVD
Sequence of Caspase-6 (P55212 194-293 limits assumed): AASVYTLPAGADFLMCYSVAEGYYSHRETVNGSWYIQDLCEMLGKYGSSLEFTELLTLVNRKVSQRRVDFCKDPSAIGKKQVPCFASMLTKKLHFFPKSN

Genome polyprotein = Genome polyprotein (dengue virus type 2, UniProt P29990); test: flavivirus cap methylation enzyme inhibition – biochemical, confirmation dose response, primary screen (AID 588689); format: functional
Sequence of Genome polyprotein (P29990 2492-3391 limits assumed): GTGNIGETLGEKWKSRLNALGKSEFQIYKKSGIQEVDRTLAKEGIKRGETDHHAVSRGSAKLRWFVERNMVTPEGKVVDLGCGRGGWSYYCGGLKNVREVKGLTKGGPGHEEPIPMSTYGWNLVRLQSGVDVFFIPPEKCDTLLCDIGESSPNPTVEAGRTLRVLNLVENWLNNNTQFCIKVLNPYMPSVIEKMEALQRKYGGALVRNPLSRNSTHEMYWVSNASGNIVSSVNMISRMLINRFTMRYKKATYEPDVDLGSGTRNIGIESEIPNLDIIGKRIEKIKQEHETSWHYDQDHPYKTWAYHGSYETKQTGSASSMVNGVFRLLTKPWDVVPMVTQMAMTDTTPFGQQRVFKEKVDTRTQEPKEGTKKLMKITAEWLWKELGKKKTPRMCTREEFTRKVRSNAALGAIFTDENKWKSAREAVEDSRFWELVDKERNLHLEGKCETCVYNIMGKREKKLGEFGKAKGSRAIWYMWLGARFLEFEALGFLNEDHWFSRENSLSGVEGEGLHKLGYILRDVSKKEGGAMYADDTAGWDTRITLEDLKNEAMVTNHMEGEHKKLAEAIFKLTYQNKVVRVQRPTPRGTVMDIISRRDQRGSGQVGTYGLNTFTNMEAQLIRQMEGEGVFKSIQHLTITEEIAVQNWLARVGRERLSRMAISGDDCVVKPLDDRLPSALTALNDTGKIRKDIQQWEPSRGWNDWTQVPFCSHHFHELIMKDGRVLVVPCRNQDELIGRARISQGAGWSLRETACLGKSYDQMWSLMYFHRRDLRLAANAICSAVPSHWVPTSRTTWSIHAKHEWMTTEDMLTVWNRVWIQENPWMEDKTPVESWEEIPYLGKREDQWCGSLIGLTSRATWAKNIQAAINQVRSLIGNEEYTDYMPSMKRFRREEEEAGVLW

ORF 73 = target: T1, ORF 73 (Human herpesvirus 8, UniProt O40947); test: KSHV LANA DNA-binding disruption – biochemical, fluorescence polarization, cherry-picked samples, dose response (AID 504725); set-up: species or system Human gammaherpesvirus 8;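 further: fluorescence polarization of a labeled DNA duplex reporting LANA DNA binding; potency is for inhibitors that block LANA binding to the DNA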
T1 sequence (O40947 whole entry): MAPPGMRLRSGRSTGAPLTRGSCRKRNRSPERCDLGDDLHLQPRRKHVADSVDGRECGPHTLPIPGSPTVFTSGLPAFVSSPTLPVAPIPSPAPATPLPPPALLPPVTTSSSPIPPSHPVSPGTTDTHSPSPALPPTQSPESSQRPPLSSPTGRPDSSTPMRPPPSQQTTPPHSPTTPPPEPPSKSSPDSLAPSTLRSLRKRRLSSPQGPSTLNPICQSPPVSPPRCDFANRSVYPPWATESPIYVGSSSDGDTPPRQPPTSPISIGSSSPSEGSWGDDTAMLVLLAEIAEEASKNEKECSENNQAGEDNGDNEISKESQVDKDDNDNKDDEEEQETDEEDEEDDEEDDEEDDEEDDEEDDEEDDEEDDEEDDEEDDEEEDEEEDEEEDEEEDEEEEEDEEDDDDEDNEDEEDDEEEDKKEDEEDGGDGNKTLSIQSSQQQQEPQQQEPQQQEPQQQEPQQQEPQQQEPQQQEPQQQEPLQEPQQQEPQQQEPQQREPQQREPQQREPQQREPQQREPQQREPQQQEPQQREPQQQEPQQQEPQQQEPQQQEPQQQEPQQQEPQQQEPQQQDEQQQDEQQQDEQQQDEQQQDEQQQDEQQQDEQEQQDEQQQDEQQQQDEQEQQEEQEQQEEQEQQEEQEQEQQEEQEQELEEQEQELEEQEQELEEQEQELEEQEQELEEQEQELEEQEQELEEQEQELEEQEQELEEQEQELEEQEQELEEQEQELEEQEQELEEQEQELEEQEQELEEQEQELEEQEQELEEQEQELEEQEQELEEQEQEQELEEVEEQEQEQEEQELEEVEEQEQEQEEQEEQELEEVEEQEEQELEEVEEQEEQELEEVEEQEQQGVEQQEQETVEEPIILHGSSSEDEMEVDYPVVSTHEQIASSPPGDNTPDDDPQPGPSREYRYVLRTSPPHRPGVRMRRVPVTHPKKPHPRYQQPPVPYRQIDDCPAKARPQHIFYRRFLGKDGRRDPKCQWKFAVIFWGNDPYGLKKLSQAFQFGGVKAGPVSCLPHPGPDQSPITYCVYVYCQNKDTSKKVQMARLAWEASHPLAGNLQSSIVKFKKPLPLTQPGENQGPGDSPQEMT

[3] = target: T2, Carboxy-terminal domain RNA polymerase II polypeptide A small phosphatase 1 (Homo sapiens, UniProt Q9GZU7); test: CTDSP1 inhibitors, concentration-response, biochemical, absorbance readout, ultra-high-throughput screen actives (AID 540297); format: functional
T2 sequence (Q9GZU7 whole entry): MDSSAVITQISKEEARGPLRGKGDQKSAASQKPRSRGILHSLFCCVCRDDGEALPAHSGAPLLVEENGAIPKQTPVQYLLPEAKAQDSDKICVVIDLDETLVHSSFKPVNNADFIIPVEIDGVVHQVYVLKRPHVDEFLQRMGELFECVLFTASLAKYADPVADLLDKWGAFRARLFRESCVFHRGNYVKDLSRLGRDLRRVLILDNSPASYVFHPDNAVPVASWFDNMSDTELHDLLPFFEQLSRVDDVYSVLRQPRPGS

[4] = HEK-293T cell viability reduction – luminescence, B-cell screen hits, cytotoxicity control for BCR NF-kB inhibitor project, dose response (AID 489021); format: functional, cell-based;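 further: HEK-293T cells carrying an NF-kB luciferase reporter; cells exposed to compound for about 14 hours before viability readout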
[5] = target: T3, Corticotropin-releasing factor receptor 2/Corticotropin-releasing factor-binding protein (Homo sapiens, UniProt P24387+Q13324); test: activators of CRF receptor 2 with binding protein – uHTS hits, confirmation (AID 602473); format: functional; conditions: read-out: EC50_Mean
T3 sequence (Q13324 whole entry): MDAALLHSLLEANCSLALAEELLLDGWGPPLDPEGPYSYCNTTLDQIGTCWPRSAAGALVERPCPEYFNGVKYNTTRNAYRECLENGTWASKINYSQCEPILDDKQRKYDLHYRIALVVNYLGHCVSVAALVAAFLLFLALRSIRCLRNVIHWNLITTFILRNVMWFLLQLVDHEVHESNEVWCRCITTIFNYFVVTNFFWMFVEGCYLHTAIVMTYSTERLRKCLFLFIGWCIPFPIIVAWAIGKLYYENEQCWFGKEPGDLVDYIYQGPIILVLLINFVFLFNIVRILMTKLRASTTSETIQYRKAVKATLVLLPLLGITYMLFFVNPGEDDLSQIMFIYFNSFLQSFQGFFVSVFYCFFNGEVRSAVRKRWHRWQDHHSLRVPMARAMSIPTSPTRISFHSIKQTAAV
T3 sequence (P24387 whole entry): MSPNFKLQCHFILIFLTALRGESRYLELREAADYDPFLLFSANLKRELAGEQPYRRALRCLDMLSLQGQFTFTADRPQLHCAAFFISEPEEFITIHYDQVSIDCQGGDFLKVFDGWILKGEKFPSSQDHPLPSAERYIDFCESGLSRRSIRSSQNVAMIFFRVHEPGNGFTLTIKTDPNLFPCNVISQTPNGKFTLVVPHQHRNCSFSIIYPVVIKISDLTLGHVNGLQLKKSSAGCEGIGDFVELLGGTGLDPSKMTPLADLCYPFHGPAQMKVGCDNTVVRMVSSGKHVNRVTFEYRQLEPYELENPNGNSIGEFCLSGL

[6] = target: T3, Corticotropin-releasing factor receptor 2/Corticotropin-releasing factor-binding protein; test: Dose Response confirmation of uHTS hits for small molecule antagonists of the CRF-binding protein and CRF-R2 receptor complex.; format: functional; conditions: read-out: IC50_Mean
[7] = HIV-1 Vif–A3G interaction blockers – biochemical, TR-FRET, GST-Vif 1-94, biotin-A3G peptide, dose response retest, primary screen (AID 1117319); format: functional;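 further: TR-FRET signal of purified GST-Vif binding a biotinylated A3G peptide; inhibitors lower the FRET signal by blocking Vif and A3G binding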
CAAX prenyl protease 2 = target: T4, CAAX prenyl protease 2 (Saccharomyces cerevisiae S288c, UniProt Q03530); format: biochemical
T4 sequence (Q03530 whole entry): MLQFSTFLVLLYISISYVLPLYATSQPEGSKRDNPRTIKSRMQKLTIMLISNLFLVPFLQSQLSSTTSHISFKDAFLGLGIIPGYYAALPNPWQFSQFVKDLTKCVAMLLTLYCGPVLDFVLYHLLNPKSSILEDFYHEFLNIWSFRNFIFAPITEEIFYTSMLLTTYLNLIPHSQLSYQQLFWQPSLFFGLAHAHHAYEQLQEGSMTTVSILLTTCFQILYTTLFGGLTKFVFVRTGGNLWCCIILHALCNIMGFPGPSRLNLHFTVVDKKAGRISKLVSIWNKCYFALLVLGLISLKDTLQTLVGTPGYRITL

INS1 = test: INS-1E survival protection against cytokine death – cell-based, luminescence, retest, dose response (AID 449756); format: functional; conditions: Rattus norvegicus;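 further: cell death triggered by IL-1 beta plus TNF-alpha plus IFN-gamma mixture; protective hits raise ATP signal compared with cytokine alone wells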
Trypsin = Trypsin (Sus scrofa, UniProt P00761); test: trypsin protease activity blockade – biochemical, quenched peptide fluorescence, cherry-pick, selectivity assay for Rce1 protease inhibitor project, dose response (AID 488789)
Sequence of Trypsin (P00761 whole entry): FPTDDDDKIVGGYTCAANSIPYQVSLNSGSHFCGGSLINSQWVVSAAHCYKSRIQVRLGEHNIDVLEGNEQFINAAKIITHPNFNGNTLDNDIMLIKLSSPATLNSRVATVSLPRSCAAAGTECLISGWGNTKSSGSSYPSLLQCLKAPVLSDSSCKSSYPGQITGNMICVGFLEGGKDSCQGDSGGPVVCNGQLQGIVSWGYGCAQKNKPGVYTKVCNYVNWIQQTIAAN

[8] = target: Melanin-concentrating hormone receptor 1 (Homo sapiens, UniProt Q99705); test: Late-stage fluorescence-based counterscreen for antagonists of the G-protein coupled receptor 7 (GPR7): cell-based dose response assay to identify antagonists of the melanin-concentrating hormone receptor 1 (MCHR1). [Related pubchem assays (depositor defined):AID1861, AID1880, AID1952, AID2148, AID2251, AID2257, AID485339]; format: functional;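 further: stimulated with 30 nM MCH peptide agonist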
Sequence of Melanin-concentrating hormone receptor 1 (Q99705 whole entry, the tested form may be a part): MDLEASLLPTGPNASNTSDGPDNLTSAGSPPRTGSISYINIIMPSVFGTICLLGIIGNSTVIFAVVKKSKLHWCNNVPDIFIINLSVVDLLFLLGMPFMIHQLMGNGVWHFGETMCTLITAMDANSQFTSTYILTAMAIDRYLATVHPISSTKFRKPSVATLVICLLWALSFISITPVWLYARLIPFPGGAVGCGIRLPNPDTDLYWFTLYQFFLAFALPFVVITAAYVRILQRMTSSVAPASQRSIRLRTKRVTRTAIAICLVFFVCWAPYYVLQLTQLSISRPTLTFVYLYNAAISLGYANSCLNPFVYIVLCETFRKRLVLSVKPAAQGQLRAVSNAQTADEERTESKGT

[9] = off-target signal loss in HeLa-CEM21 co-culture – HeLa F-luc CTL cells, cherry-picked, counter-screen for HIV-1 Env fusion inhibitor project, dose response (AID 652040); format: functional, cell-based;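 further: potency for signal decrease marking cytotoxic or nonspecific inhibition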
[10] = alpha-synuclein stem-loop luciferase translation blockers – H4 neuroglioma cells, luminescence, confirmation (AID 1988); format: functional, cell-based
[11] = blockers of HIV-1 envelope-mediated cell-cell fusion – cherry-pick, dose response (AID 652057); format: functional, cell-based
[12] = Luminescence Cell-Based Dose Response HTS to Identify Inhibitors of 5'UTR Stem-Loop Driven Prion Protein mRNA Translation in H4 Neuroglioblastoma Cells. [Related pubchem assays: 1827 (Project Summary), 1813 (Primary HTS)]; format: functional
[13] = HIV-1 AD8 envelope cell-cell fusion blockers – cherry-pick, dose response (AID 652062); format: functional, cell-based;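 further: luciferase signal from cell-cell fusion driven by HIV-1 clade B AD8 Env; potency is for inhibitors of fusion seen as a drop in luminescence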
[14] = blockers of HIV-1 ZM109 envelope-driven cell-cell fusion – HeLa effector, CEM target cells, luciferase, cherry-pick, dose response (AID 652058); format: functional, cell-based;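 further: luciferase signal from HIV-1 Env mediated cell-cell fusion of effector and target cells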
Staphylococcus aureus = test: Inhibitors of Bacterial Quorum Sensing Structure Activity Relationship (SAR) Analysis: Dose Response Assay. [Related pubchem assays: 700, 527 ]; format: functional, organism-based
[15] = fluconazole-exposed Candida albicans growth modulators – fluorescence, retest, confirmation (AID 2467); format: functional, cell-based
[16] = target: ATP-dependent molecular chaperone HSP82 (Candida albicans (strain WO-1) (Yeast), UniProt C4YTQ8); test: steroid-induced GRE reporter decrease in yeast – S. cerevisiae, luminescence, Hsp90 inhibitor project, dose response (AID 2400); format: functional, cell-based;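 further: beta-galactosidase luminescence from glucocorticoid response element reporter as proxy for Hsp90 function; inhibitor potency where signal loss means Hsp90 inhibition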
Sequence of ATP-dependent molecular chaperone HSP82 (C4YTQ8 whole entry): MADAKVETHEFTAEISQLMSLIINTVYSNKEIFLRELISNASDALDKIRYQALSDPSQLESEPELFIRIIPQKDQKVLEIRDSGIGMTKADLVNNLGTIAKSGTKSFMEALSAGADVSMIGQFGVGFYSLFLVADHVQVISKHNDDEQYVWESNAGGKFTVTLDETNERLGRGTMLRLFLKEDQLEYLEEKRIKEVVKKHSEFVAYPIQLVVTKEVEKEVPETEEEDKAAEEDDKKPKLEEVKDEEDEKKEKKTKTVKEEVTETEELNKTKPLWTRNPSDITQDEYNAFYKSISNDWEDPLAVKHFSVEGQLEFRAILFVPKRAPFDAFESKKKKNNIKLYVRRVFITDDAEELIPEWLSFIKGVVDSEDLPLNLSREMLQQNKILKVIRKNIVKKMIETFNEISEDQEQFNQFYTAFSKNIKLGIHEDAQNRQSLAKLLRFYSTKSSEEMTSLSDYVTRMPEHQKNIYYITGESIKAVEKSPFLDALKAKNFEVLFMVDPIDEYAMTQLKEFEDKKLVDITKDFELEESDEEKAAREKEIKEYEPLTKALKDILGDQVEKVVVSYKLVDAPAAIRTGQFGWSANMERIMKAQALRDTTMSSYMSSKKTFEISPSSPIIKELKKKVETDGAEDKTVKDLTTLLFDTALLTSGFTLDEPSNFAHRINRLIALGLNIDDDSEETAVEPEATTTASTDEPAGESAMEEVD

[17] = target: T5, Serine/threonine-protein phosphatase (Candida dubliniensis (strain CD36 / CBS 7987 / NCPF 3949 / NRRLY-17841) (Yeast), UniProt B9W6M3); test: blockers of CaCl2-induced CDRE-lacZ signaling – S. cerevisiae, luminescence, secondary, dose response (AID 2388); format: functional, cell-based;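 further: yeast reporter cells carrying a calcineurin-responsive lacZ construct stimulated with calcium chloride; luminescent beta-galactosidase reporter signal in whole cells rather than isolated phosphatase activity; potency for inhibition where a drop in reporter signal means calcineurin blockade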
T5 sequence (B9W6M3 whole entry): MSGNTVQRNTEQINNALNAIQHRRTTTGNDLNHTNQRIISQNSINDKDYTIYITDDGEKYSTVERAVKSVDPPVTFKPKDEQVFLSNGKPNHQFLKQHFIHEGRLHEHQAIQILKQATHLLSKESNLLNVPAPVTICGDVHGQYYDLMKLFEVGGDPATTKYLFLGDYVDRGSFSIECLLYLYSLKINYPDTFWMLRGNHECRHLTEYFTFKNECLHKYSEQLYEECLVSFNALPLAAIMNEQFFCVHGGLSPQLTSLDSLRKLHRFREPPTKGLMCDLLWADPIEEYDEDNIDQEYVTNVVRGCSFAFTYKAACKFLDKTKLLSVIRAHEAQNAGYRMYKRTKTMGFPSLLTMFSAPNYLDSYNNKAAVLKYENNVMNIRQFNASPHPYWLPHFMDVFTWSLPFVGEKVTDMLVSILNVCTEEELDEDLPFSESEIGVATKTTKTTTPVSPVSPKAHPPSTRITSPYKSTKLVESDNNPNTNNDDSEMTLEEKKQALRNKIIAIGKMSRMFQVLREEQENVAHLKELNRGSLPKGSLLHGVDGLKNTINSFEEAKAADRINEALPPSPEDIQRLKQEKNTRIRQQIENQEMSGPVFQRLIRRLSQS

[18] = NIH-3T3 fibroblast cytotoxicity, dose response, cytotoxicity control, cell-based, fluorescence, Alamar Blue, secondary assay (AID 2327); format: functional;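 further: NIH-3T3 mouse fibroblasts cultured with fluconazole at 8 µg/mL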
[19] = target: FAD-linked sulfhydryl oxidase ALR (Homo sapiens, UniProt P55789); test: ALR-catalysed DTT oxidation blockers – biochemical, H2O2 detection, luminescence, cherry-pick, dose response (AID 493248)
Sequence of FAD-linked sulfhydryl oxidase ALR (P55789 whole entry): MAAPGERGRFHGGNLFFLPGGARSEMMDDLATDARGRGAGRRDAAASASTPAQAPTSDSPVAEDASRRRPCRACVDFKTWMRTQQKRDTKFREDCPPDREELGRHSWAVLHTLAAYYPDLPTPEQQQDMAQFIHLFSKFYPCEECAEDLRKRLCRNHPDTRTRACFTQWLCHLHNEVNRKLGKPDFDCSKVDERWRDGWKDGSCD

Sequence of Beta-galactosidase (Q8VNN2 whole entry): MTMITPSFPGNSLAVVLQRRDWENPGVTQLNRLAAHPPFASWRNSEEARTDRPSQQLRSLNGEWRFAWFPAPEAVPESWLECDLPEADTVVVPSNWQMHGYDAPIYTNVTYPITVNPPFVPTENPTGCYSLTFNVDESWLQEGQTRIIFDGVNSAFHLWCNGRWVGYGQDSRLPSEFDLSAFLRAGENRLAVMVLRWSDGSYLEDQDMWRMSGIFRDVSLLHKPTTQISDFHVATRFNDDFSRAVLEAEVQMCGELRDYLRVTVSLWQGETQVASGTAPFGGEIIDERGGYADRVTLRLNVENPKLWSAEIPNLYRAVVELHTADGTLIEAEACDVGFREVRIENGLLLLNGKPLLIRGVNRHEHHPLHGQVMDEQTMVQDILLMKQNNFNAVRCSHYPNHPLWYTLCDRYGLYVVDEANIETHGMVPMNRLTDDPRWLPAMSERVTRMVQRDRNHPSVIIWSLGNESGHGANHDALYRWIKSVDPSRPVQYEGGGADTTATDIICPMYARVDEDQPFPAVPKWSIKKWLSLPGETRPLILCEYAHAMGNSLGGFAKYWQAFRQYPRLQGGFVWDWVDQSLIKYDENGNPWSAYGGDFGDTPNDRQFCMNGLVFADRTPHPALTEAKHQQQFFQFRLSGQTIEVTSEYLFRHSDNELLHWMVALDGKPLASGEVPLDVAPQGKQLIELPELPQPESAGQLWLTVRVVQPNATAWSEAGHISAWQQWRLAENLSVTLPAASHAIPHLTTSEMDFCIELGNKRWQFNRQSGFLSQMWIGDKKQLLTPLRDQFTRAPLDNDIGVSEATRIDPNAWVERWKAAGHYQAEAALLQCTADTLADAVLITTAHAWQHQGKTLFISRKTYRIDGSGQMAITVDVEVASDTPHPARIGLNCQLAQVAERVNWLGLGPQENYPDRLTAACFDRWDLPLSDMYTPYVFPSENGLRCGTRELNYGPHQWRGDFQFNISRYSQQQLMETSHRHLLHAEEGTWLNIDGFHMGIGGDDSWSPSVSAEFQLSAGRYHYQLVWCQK

## COC(=O)c1ccccc1/N=C1\C=C(NS(=O)(=O)c2cccs2)c2ccccc2C1=O
Beta-galactosidase
  IC50: > 66.6 µM (inactive)
Nonstructural protein 1
  IC50: 4.03 µM (active)
Vero
  CC50: 13.6 µM (active)
[1]
  IC50: > 80 µM (inactive)
[2]
  IC50: > 66.6 µM (inactive)

## O=C(O)Cc1ccc(N=Nc2c(O)c(C(=O)O)cc3ccccc23)cc1
Nonstructural protein 1
  IC50: 46 µM (active)
HeLa
  AC50: 303 µM (active)
Caspase-6
  AC50: 7.16 µM (active)
Genome polyprotein
  IC50: 68.1 µM (active)
ORF 73
  AC50: 33.6 µM (active)
[3]
  IC50: 3.6 µM (active)

## COc1ccc(OC)c(NC(=O)c2[nH]c(C)c(C(C)=O)c2C)c1
[4]
  IC50: > 80 µM (inactive)
[5]
  EC50: > 53 µM (inactive)
[6]
  IC50: > 47.1 µM (inactive)
[7]
  IC50: > 100 µM (active)

## COc1ccc(-c2c[n+]3c4n2CCCCC4=C(c2ccc(Br)cc2)C3)cc1
CAAX prenyl protease 2
  AC50: 1.87 µM (active)
INS1
  AC50: 2.88 µM (active)
Trypsin
  AC50: 3.58 µM (active)

## CCOc1ccc(Oc2c(Cl)cnn(-c3ccc(C)cc3)c2=O)cc1
[8]
  IC50: 11 µM (inactive)

## OCCN1CCN(C(=S)c2ccc(-c3ccccc3)cc2)CC1
[1]
  IC50: > 80 µM (inactive)
[4]
  IC50: > 80 µM (inactive)
[9]
  AC50: 5.39 µM (active)
[10]
  EC50: 9.34 µM (active)
[11]
  AC50: 4.04 µM (active)
[12]
  EC50: 12.1 µM (active)
[13]
  AC50: 1.64 µM (active)
[14]
  AC50: 3.74 µM (active)

## O=C1CSC(NC(=O)N2c3ccccc3Sc3ccccc32)=N1
Staphylococcus aureus
  IC50: 0.278 µM (active)
[15]
  EC50: 2.32 µM (active)
[16]
  EC50: > 150 µM (inactive)
[17]
  EC50: > 180 µM (inactive)
[18]
  EC50: > 150 µM (inactive)
[19]
  AC50: 0.335 µM (active)

## COC(=O)C(NC(=O)C(C)NC(=O)OCc1ccccc1)C(C)C (stereo not given)
HeLa
  AC50: 68.2 µM (active)
ORF 73
  AC50: 70.8 µM (active)
